Measured values reported in patent publication US20260258084A1, “New Peptides as Selective IL-23 Receptor Antagonists” (Sanofi, priority 2022, published 2026).
pIC50: −log10 of the molar value. Values after ≈ are worked out from the molar mass of the structure shown. Read-outs that look alike come from different tables or passages of the source. Starred links: 1 amine or outer side, 2 acyl side, 3 side chain; linkers in the order of their positions; H or OH if unused. Positions of bridges follow the written chain, without caps; N, C: chain ends. Non-standard residues stand in square brackets, D forms with d. Residues, ends and D or L forms follow the SMILES beside them. Groups on a side chain read outwards from the residue. *: point of attachment. Trp(7-Me) = Cc1cccc2c(C[C@H](N)C(=O)O)c[nH]c12; C18 diacid = O=C(O)CCCCCCCCCCCCCCCCC(=O)*; αMeLys(Me2) = CN(C)CCCC[C@](C)(N)C(=O)O; γGlu = O=C(O)[C@H](CCC(=O)[*:2])N[*:1]; 2Nal = N[C@@H](Cc1ccc2ccccc2c1)C(=O)O; 3Pal = N[C@@H](Cc1cccnc1)C(=O)O; Suc = O=C(CCC(=O)[*:2])[*:1]; AEEA = NCCOCCOCC(=O)O; Me2NCH2CH2 = CN(C)CC*; Aib = CC(C)(N)C(=O)O; Sar = CNCC(=O)O

Key:
[1] = target: T1, human interleukin-23 receptor (recombinant human IL-23R-Fc chimera) (Homo sapiens, UniProt Q5VWK5); test: Human ELISA IL23/IL23R (assay for specific human IL23R antagonists); assay type: binding; conditions: Table 10; read-out: Human ELISA IL23/IL23R IC50
T1 construct: Fc (IgG Fc fusion)
How it was run: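 Competition format: peptide dilutions compete for IL23R-Fc chimera (0.1 μg/ml final, 60 min, room temperature) binding to immobilized human IL23 coated at […] overnight at 4 °C. Read-out is fluorogenic HRP signal from goat anti-hu-IgG1 detecting captured receptor.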

Pepsin = system: T2, Pepsin; test: Protease stability in simulated gastric fluid (Pepsin-SGF, FaSSGF); assay type: in vitro ADME; conditions: simulated gastric fluid with pepsin (Pepsin-SGF), 60 min, 1 μM peptide, 37° C., read-out: FaSSGF 60 (min), remaining percent of peptide
T2 construct: purchased Merck Millipore
Description: (§1) Studies were carried out in simulated intestinal fluid (SIF) and simulated gastric fluid (SGF) to evaluate gastric stability of the peptide compounds disclosed herein.
For clarification the term “Pepsin-SGF” refers to a solution of simulated gastric fluid containing pepsin whereas “SGF media” refers to a solution of simulated gastric fluid without pepsin. Pepsin-SGF was prepared by dissolving 320 mg Pepsin (Merck Millipore) in 100 mL SGF media concentrate (ProSense).
(§2) Peptides were first dissolved at 1 mM stock concentration in 0.01 HCl (+/−10% of DMSO) and were than diluted further with water to a stock concentration of 20 μM. Final peptide concentration in the incubation was 1 μM.
(§3) To 76 μL of the Pepsin-SGF buffer, 4 μL of the 20 μM peptide stock solution was added and incubated at 37° C. At each timepoint (0, 60, 120 and 240 minutes) the reaction was quenched with addition of 80 μL Ethanol (0.1% HCOOH). The samples were centrifuged for 20 minutes and an aliquot of the supernatant 100 μL were transferred to a LoBind-MTP plate and analyzed by LCMS/MS. The peak area response was calculated at each time point for each test compound. As internal reference, the peak area response of the same test compound at TO was calculated. The percent remaining at each timepoint was calculated based on the peak area response ratio of the test compound at TO. Time 0 was set to 100%, and all later timepoints were calculated relative to time 0.

Pancreatin = test: Protease stability in simulated intestinal fluid (Pancreatin-SIF, FaSSIF); assay type: in vitro ADME; conditions: 1 μM peptide, 37° C.; for remaining at 1 h, 1 µM: 60 min, read-out: FaSSIF 60 (min), remaining percent of peptide; for remaining at 2 h, 1 µM: 120 min, read-out: FaSSIF 120 (min), remaining percent of peptide; for remaining at 4 h, 1 µM: 240 min, read-out: FaSSIF 240 (min), remaining percent of peptide
Description: as §1
Similarly, the term “Pancreatin-SIF” refers to a solution of simulated intestinal fluid containing pancreatin whereas “SIF-media” refers to a solution of simulated intestinal fluid without pancreatin.
Pancreatin-SIF was prepared by dissolving 1 mg Pancreatin (MP Biomedicals) in 10 mL SIF media concentrate (ProSense).
as §2
as §3, with “µM” for “μM”

[2] = system: IL-23 induced STAT3 signaling in HEK-Blue™ IL-23 cells; test: IL-23 induced STAT3 signaling in HEK-Blue IL-23 cells (SEAP reporter); assay type: cell-based; conditions: human IL23 0.25 ng/ml, read-out: pSTAT3
How it was run: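 Secreted SEAP, read at OD 620-655 nm after 45 min QUANTI-Blue development, reports STAT3 activation. Beforehand, cells were exposed to peptide dilutions for 60 min at 37 °C and then to 0.25 ng/ml final human IL-23 overnight, at 10,000 cells/well.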

[3] = Chemical stability assessment of peptides (relative purity loss); assay type: physicochemical; conditions: 24 hours at 37° C.
Description: Purity of a peptide batch was determined through UPLC/MS (Methods B-G) prior to chemical stability measurement. The target concentration was 1 mg/ml pure compound. Solutions from solid samples were prepared in the following buffer systems with a concentration of 1 mg/ml compound based on the previously determined % purity: • Solubility buffer system A) 50 mM HCl pH 1.2+Acetonitrile (1:1) • Solubility buffer system B) 50 mM phosphate buffer pH 6.5+Acetonitrile (1:1) • Solubility buffer system C) 50 mM phosphate buffer pH 7.4+Acetonitrile (1:1)
Prepared solutions were stored for 24 hours at 2° C. and 37° C. After this time course, the samples were centrifuged for 15 min at 2500 RCF to create a 1:5 dilution of the supernatant. Then 2 μl of the dilution were analysed with UHPLC-UV.
The chemical stability was rated through the relative loss of purity calculated by the equation:
[(purity after 0 hours at 37° C.)−(purity after 24 hours at 37° C.)]/(purity after 0 hours at 37° C.)]*100%
The purity is calculated as [(peak area peptide)/(total peak area)]*100%.

[4] = Solubility testing of peptides at different pH; assay type: physicochemical; conditions: target concentration 1 mg/ml, 2 hours agitation
Description: Prior to the solubility measurement of a synthesized peptide batch, its purity was determined through UPLC/MS (methods B-G).
For solubility testing the target concentration was 1 mg pure compound/ml. Therefore, solutions from solid samples were prepared in a buffer system at a concentration of 1 mg/mL compound. The solid samples were obtained by drying down aliquots of a dimethyl sulfoxide stock solution using a Thermo Speedvac vacuum centrifuge. The dry down time was 3 hours. • Solubility buffer system A) 50 mM HCl pH 1.2 • Solubility buffer system B) 50 mM phosphate buffer pH 6.5 • Solubility buffer system C) 50 mM phosphate buffer pH 7.4 • Solubility buffer system D) 50 mM phosphate buffer pH 9.0
UPLC-UV (Method A) was performed after 2 hours of gentle agitation from the filtered (0.45 μm filter plates) solutions, which was obtained by 10 mins of centrifugation forced filtration at 1500 RCF (relative centrifugal acceleration).
The solubility was determined by the comparison of the UV peak area of 2 μL-injections of a buffered sample diluted 1:5 with a standard curve of a dimethyl sulfoxide reference sample of the diluted in dimethyl sulfoxide with known concentration. The different extinction coefficients were taken into account for the calculation.

Row | pIC50 [1] | remaining at 1 h, 1 µM (Pepsin) [%] | remaining at 1 h, 1 µM (Pancreatin) [%] | remaining at 2 h, 1 µM (Pancreatin) [%] | remaining at 4 h, 1 µM (Pancreatin) [%] | Chemical stability (relative purity loss) Buffer pH 1.2 ([3]; 50 mM HCl pH 1.2 + acetonitrile (1:1)) [%] | Chemical stability (relative purity loss) Buffer pH 6.5 ([3]; 50 mM phosphate buffer pH 6.5 + acetonitrile (1:1)) [%] | Chemical stability (relative purity loss) Buffer pH 7.4 ([3]; 50 mM phosphate buffer pH 7.4 + acetonitrile (1:1)) [%] | solubility at 2 h ([4]; 50 mM HCl buffer, 50 mM HCl pH 1.2, read-out: Solubility Buffer pH 1.2) [µg/mL] | solubility at 2 h ([4]; 50 mM phosphate buffer pH 6.5, read-out: Solubility Buffer pH 6.5) [µg/mL] | solubility at 2 h ([4]; 50 mM phosphate buffer pH 7.4, read-out: Solubility Buffer pH 7.4) [µg/mL] | solubility at 2 h ([4]; 50 mM phosphate buffer pH 9.0, read-out: Solubility Buffer pH 9.0) [µg/mL] | Structure (SMILES) | pIC50 [2]
1 | 9.21 | 101 | 97 | 97 | 96 | – | – | – | – | – | – | – | CC(=O)NCCCC[C@@H]1NC(=O)[C@H](Cc2c[nH]c3c(C)cccc23)NC(=O)[C@H]([C@@H](C)O)NC(=O)[C@H](CC(N)=O)NC(=O)[C@@H]2CSSC[C@H](NC1=O)C(=O)N[C@@H](Cc1ccc(OCCN(C)C)cc1)C(=O)N[C@@H](Cc1ccc3ccccc3c1)C(=O)N[C@@](C)(CCCCN(C)C)C(=O)N[C@H](C(=O)N[C@@H](CC(N)=O)C(=O)N[C@@H](Cc1cccnc1)C(=O)N(C)CC(N)=O)CCCCNC(=O)CCC(=O)N2 [compound 151] (CNT[Trp(7-Me)]K(Ac)CY(Me2NCH2CH2)[2Nal][αMeLys(Me2)]KN[3Pal][Sar]-NH2; disulfide 1-6; linker N-10 via Suc) | 10.22
2 | 9.51 | 76 | – | – | – | – | – | – | – | – | – | – | Cc1cccc2c(C[C@@H]3NC(=O)[C@H]([C@@H](C)O)NC(=O)[C@H](CC(N)=O)NC(=O)[C@@H]4CSSC[C@H](NC(=O)[C@H](CCC(N)=O)NC3=O)C(=O)N[C@@H](Cc3ccc(OCCN(C)C)cc3)C(=O)N[C@@H](Cc3ccc5ccccc5c3)C(=O)NC(C)(C)C(=O)N[C@H](C(=O)N[C@@H](CC(N)=O)C(=O)N[C@@H](Cc3cccnc3)C(=O)N[C@@H](CCCCNC(=O)COCCOCCNC(=O)COCCOCCNC(=O)CC[C@H](NC(=O)CCCCCCCCCCCCCCCCC(=O)O)C(=O)O)C(N)=O)CCCCNC(=O)CCC(=O)N4)c[nH]c12 [compound 71] (CNT[Trp(7-Me)]QCY(Me2NCH2CH2)[2Nal][Aib]KN[3Pal]K([AEEA-AEEA-γGlu-C18 diacid])-NH2; disulfide 1-6; linker N-10 via Suc) | 8.63
3 | – | 0 | 84 | 68 | 47 | 28.9 | 1.3 | 6.0 | 200 (≈ 117 µM) | 160 (≈ 93.8 µM) | 160 (≈ 93.8 µM) | 150 (≈ 87.9 µM) | COc1ccc(C[C@@H]2NC(=O)[C@@H]3CSSC[C@H](NC(=O)[C@@H](NC(C)=O)CCCCNC(=O)C[C@@H](C(=O)N[C@@H](CC(N)=O)C(=O)N[C@@H](CC(N)=O)C(N)=O)NC(=O)C(C)(C)NC(=O)[C@H](Cc4ccc5ccccc5c4)NC2=O)C(=O)N[C@@H](CC(N)=O)C(=O)N[C@@H]([C@@H](C)O)C(=O)N[C@@H](Cc2c[nH]c4ccccc24)C(=O)N[C@@H](CCC(N)=O)C(=O)N3)cc1 [compound 7] (Ac-KCNTWQCY(Me)[2Nal][Aib]DNN-NH2; lactam 1-11; disulfide 2-7) | 7.60
